Structures are written as SMILES.

This passage reports IC50 results from patent US20180141962A1, “AZACARBAZOLE BTK INHIBITORS” (MERCK SHARP & DOHME CORP., priority 2015, published 2018).

The target of this experiment is T1, BTK enzyme (recombinant full-length BTK, hBTK) (Homo sapiens, UniProt Q06187).
T1 construct: recombinant protein from baculovirus-transfected Sf9 cells: full-length BTK, 6HIS-tag cleaved; 6HIS (cleaved yes); made in house; host or cells: baculovirus-transfected Sf9 cells
T1 sequence (Q06187 whole entry): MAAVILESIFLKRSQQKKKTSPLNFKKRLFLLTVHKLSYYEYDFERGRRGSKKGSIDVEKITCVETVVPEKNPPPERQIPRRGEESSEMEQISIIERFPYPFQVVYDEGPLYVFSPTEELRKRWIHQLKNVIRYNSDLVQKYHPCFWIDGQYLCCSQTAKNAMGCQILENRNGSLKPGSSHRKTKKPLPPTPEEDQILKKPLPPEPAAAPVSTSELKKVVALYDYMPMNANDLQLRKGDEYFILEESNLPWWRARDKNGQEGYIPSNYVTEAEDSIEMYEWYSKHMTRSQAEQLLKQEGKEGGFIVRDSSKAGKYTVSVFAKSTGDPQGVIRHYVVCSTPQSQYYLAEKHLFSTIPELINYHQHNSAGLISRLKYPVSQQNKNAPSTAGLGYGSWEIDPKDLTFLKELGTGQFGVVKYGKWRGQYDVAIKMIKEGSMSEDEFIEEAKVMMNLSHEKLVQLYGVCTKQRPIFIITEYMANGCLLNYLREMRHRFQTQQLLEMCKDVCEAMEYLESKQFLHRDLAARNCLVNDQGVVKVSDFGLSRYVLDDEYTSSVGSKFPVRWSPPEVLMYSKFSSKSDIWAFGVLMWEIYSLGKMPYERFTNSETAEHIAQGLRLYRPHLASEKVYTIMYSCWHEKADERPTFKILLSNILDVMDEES
Nature of the experiment: Btk enzyme activity assay, LANCE TR-FRET. It counts as biochemical. As to conditions: 50 pM hBTK, 2 μM biotin-A5-peptide, 25 μM ATP; 60 minute compound & enzyme incubation; 120 minutes reaction; read-out: BTK binding potency IC50. On the procedure: Btk Enzyme Activity Assay Methods
BTK enzymatic activity was determined with the LANCE (Lanthanide Chelate Excite) TR-FRET (lime-resolved fluorescence resonance energy transfer) assay. […] Phosphorylation reactions were allowed to proceed for 120 minutes. […] After 60 minutes incubation with detection reagents, reaction plates were read on a PerkinElmer EnVision plate reader using standard TR-FRET protocol. Briefly, excitation of donor molecules (Eu-chelate:anti-phospho-antibody) with a laser light source at 337 nm produces energy that can be transferred to Dylight-650 acceptor molecules if this donor:acceptor pair is within close proximity. Fluorescence intensity at both 665 nm (acceptor) and 615 nm (donor) are measured and a TR-FRET ratio calculated for each well (acceptor intensity/donor intensity). IC50 values were determined by 4 parameter robust fit of TR-FRET ratio values vs. (Log10) compound concentrations.
Background: In TR-FRET formats the signal depends on donor and acceptor labels being close together.
As usually defined, the IC50 is the concentration that gives 50% inhibition. Consider `CN1CC(CO)C2(CCCN(c3ncc(C(N)=O)c4[nH]c5ccccc5c34)C2)C1=O` (single isomer, unassigned) [Example 90, cis-1-(4-(hydroxymethyl)-2-methyl-1-oxo-2,7-diazaspiro[4.5]decan-7-yl)-5H-pyrido[4,3-b]indole-4-carboxamide], for which the IC50 worked out at 0.115 µM. Take `CC(C)N1CCC(c2ccc3c(c2)[nH]c2c(C(N)=O)cnc(N4CCCC5(CCNC5=O)C4)c23)CC1` (stereo not drawn) [Example 52, 7-[1-(1-methylethyl)piperidin-4-yl]-1-(1-oxo-2,7-diazaspiro[4.5]dec-7-yl)-5H-pyrido[4,3-b]indole-4-carboxamide]: the concentration for half-maximal inhibition (IC50) turned out to be 0.00096 µM. Turning to `NC(=O)c1cnc(N2CCCC3(CCN(c4ccc(F)cc4)C3=O)C2)c2c1[nH]c1ccccc12` (stereo not drawn) [Example 32, 1-[2-(4-fluorophenyl)-1-oxo-2,7-diazaspiro[4.5]dec-7-yl]-5H-pyrido[4,3-b]indole-4-carboxamide], the IC50 is 0.244 µM. As for `NC(=O)c1cnc(N2CCCC3(CCNC3=O)C2)c2c1[nH]c1ccc(C(O)CO)cc12` (stereo not drawn) [Example 65, 8-(1,2-dihydroxyethyl)-1-(1-oxo-2,7-diazaspiro[4.5]dec-7-yl)-5H-pyrido[4,3-b]indole-4-carboxamide], the IC50 came to 0.0165 µM.

For the compound `COc1cc(-c2ccc3c(c2)[nH]c2c(C(N)=O)cnc(N4CCC[C@@]5(CCNC5=O)C4)c23)ccn1` [Example 69, 7-(2-methoxypyridin-4-yl)-1-[(5R)-1-oxo-2,7-diazaspiro[4.5]dec-7-yl]-5H-pyrido[4,3-b]indole-4-carboxamide], the concentration for half-maximal inhibition (IC50) amounted to 0.0175 µM.

In the case of `CC(C)N1CCC(c2ccc3c(c2)[nH]c2c(C(N)=O)cnc(N4CCC[C@@]5(CCNC5=O)C4)c23)CC1` [Example 71, 7-[1-(1-methylethyl)piperidin-4-yl]-1-[(5R)-1-oxo-2,7-diazaspiro[4.5]dec-7-yl]-5H-pyrido[4,3-b]indole-4-carboxamide], the half-maximal inhibitory concentration (IC50) came to 0.00083 µM. Under `NC(=O)c1cnc(N2CCCC3(CCNC3=O)C2)c2c1[nH]c1cc(C(=O)O)ccc12` (stereo not drawn) [Example 85, 4-carbamoyl-1-(1-oxo-2,7-diazaspiro[4.5]dec-7-yl)-5H-pyrido[4,3-b]indole-7-carboxylic acid] stands 0.448 µM; under `CC(C)N1CCC(c2ccc3[nH]c4c(C(N)=O)cnc(N5CCCC6(CCNC6=O)C5)c4c3c2)CC1` (stereo not drawn) [Example 50, 8-[1-(1-methylethyl)piperidin-4-yl]-1-(1-oxo-2,7-diazaspiro[4.5]dec-7-yl)-5H-pyrido[4,3-b]indole-4-carboxamide], 0.0587 µM.

Turning to `COc1cc(-c2ccc3c(c2)[nH]c2c(C(N)=O)cnc(N4CCC[C@@]5(CCN(C)C5=O)C4)c23)ccn1` [Example 75, 7-(2-methoxypyridin-4-yl)-1-[(5R)-2-methyl-1-oxo-2,7-diazaspiro[4.5]dec-7-yl]-5H-pyrido[4,3-b]indole-4-carboxamide], the IC50 came to 0.0095 µM. Consider `CC(C)(O)CN1CCC(c2ccc3[nH]c4c(C(N)=O)cnc(N5CCCC6(CCNC6=O)C5)c4c3c2)CC1` (stereo not drawn) [Example 62, 8-[1-(2-hydroxy-2-methylpropyl)piperidin-4-yl]-1-(1-oxo-2,7-diazaspiro[4.5]dec-7-yl)-5H-pyrido[4,3-b]indole-4-carboxamide], for which the concentration for half-maximal inhibition (IC50) was found to be 0.0597 µM.

As to `NC(=O)c1cnc(N2CCCC3(CCNC3=O)C2)c2c1[nH]c1ccc(C3CCN(CC(=O)O)CC3)cc12` (stereo not drawn) [Example 48, {4-[4-carbamoyl-1-(1-oxo-2,7-diazaspiro[4.5]dec-7-yl)-5H-pyrido[4,3-b]indol-8-yl]piperidin-1-yl}acetic acid], the IC50 stood at 0.0476 µM. For `NC(=O)c1cnc(N2CCCC3(CCCN(c4ccc(F)cc4)C3=O)C2)c2c1[nH]c1ccccc12` (stereo not drawn) [Example 4, 1-[8-(4-fluorophenyl)-7-oxo-2,8-diazaspiro[5.5]undec-2-yl]-5H-pyrido[4,3-b]indole-4-carboxamide], the IC50 stood at 0.017 µM.

For `NC(=O)c1cnc(N2CCCC3(C2)C(=O)NCC3O)c2c1[nH]c1ccccc12` (mixture of isomers) [Example 86, 1-(4-hydroxy-1-oxo-2,7-diazaspiro[4.5]decan-7-yl)-5H-pyrido[4,3-b]indole-4-carboxamide], the half-maximal inhibitory concentration (IC50) was 0.17 µM.

For `NC(=O)c1cnc(N2CCCC3(CCCNC3=O)C2)c2c1[nH]c1ccccc12` (stereo not drawn) [Example 30, 1-(7-oxo-2,8-diazaspiro[5.5]undec-2-yl)-5H-pyrido[4,3-b]indole-4-carboxamide], the IC50 came out at 0.028 µM.

`NC(=O)c1cnc(N2CCC3(CCCN(c4ccc(F)cc4)C3=O)C2)c2c1[nH]c1ccccc12` (stereo not drawn) [Example 33, 1-[7-(4-fluorophenyl)-6-oxo-2,7-diazaspiro[4.5]dec-2-yl]-5H-pyrido[4,3-b]indole-4-carboxamide]: the IC50 came out at 0.212 µM. Under `CC(C)(C)OC(=O)N1CCC(c2ccc3[nH]c4c(C(N)=O)cnc(N5CCCC6(CCNC6=O)C5)c4c3c2)CC1` (stereo not drawn) [Example 46, tert-butyl 4-[4-carbamoyl-1-(1-oxo-2,7-diazaspiro[4.5]dec-7-yl)-5H-pyrido[4,3-b]indol-8-yl]piperidine-1-carboxylate] stands 0.377 µM; under `CN1CC[C@@]2(CCCN(c3ncc(C(N)=O)c4[nH]c5cc(C6CCC(CC(C)(C)O)CC6)ccc5c34)C2)C1=O` (stereo partly drawn) [Example 82, 7-[4-(2-hydroxy-2-methylpropyl)cyclohexyl]-1-[(5R)-2-methyl-1-oxo-2,7-diazaspiro[4.5]dec-7-yl]-5H-pyrido[4,3-b]indole-4-carboxamide], 0.0029 µM. Then `NC(=O)c1cnc(N2CCCC3(CCNC3=O)C2)c2c1[nH]c1cc(C3CCNCC3)ccc12` (stereo not drawn) [Example 42, 1-(1-oxo-2,7-diazaspiro[4.5]decan-7-yl)-7-(piperidin-4-yl)-5H-pyrido[4,3-b]indole-4-carboxamide], with 0.0014 µM; and `CC(=O)N1CCC2(CCN(c3ncc(C(N)=O)c4[nH]c5ccccc5c34)CC2)C1` [Example 14, 1-(2-acetyl-2,8-diazaspiro[4.5]dec-8-yl)-5H-pyrido[4,3-b]indole-4-carboxamide], with 0.026 µM.

`COC(=O)N1CCC(c2ccc3c(c2)[nH]c2c(C(N)=O)cnc(N4CCCC5(CCNC5=O)C4)c23)CC1` (stereo not drawn) [Example 56, methyl 4-[4-carbamoyl-1-(1-oxo-2,7-diazaspiro[4.5]dec-7-yl)-5H-pyrido[4,3-b]indol-7-yl]piperidine-1-carboxylate]: the IC50 was 0.003 µM. For `CNC(=O)N1CCC(c2ccc3[nH]c4c(C(N)=O)cnc(N5CCCC6(CCNC6=O)C5)c4c3c2)CC1` (stereo not drawn) [Example 47, 8-[1-(methylcarbamoyl)piperidin-4-yl]-1-(1-oxo-2,7-diazaspiro[4.5]dec-7-yl)-5H-pyrido[4,3-b]indole-4-carboxamide], the 50% inhibitory concentration (IC50) was 0.0726 µM. Under `CC(C)(C)c1ccc(N2CCC3(CCCN(c4ncc(C(N)=O)c5[nH]c6ccccc6c45)C3)CC2=O)cc1` (stereo not drawn) [Example 38, 1-[9-(4-tert-butylphenyl)-8-oxo-2,9-diazaspiro[5.5]undec-2-yl]-5H-pyrido[4,3-b]indole-4-carboxamide] stands 0.42 µM; under `NC(=O)c1cnc(N2CCCC3(CCNC3=O)C2)c2c1[nH]c1cc(C3CCN(CC(=O)O)CC3)ccc12` (stereo not drawn) [Example 59, {4-[4-carbamoyl-1-(1-oxo-2,7-diazaspiro[4.5]dec-7-yl)-5H-pyrido[4,3-b]indol-7-yl]piperidin-1-yl}acetic acid], 0.0016 µM; under `NC(=O)c1cnc(N2CCC3(CCNC3)CC2)c2c1[nH]c1ccccc12` [Example 12, 1-(2,8-diazaspiro[4.5]dec-8-yl)-5H-pyrido[4,3-b]indole-4-carboxamide], 0.035 µM.

Consider `CC(C)(C)OC(=O)N1CC2(CCCN(c3ncc(C(N)=O)c4[nH]c5ccccc5c34)C2)C1` [Example 28, tert-butyl 6-(4-carbamoyl-5H-pyrido[4,3-b]indol-1-yl)-2,6-diazaspiro[3.5]nonane-2-carboxylate], for which the half-inhibitory concentration (IC50) turned out to be 0.579 µM.

`CS(=O)(=O)N1CCC(c2ccc3[nH]c4c(C(N)=O)cnc(N5CCCC6(CCNC6=O)C5)c4c3c2)CC1` (stereo not drawn) [Example 66, 8-[1-(methylsulfonyl)piperidin-4-yl]-1-(1-oxo-2,7-diazaspiro[4.5]dec-7-yl)-5H-pyrido[4,3-b]indole-4-carboxamide]: the 50% inhibitory concentration (IC50) was 0.125 µM. Regarding `NC(=O)c1cnc(N2CCC[C@@]3(C2)C(=O)NC[C@@H]3c2ccccc2)c2c1[nH]c1ccccc12` (single isomer, unassigned) [Example 88, 1-[(trans)-1-oxo-4-phenyl-2,7-diazaspiro[4.5]dec-7-yl]-5H-pyrido[4,3-b]indole-4-carboxamide], the IC50 came out at 0.0778 µM.

With `CN1CCC(c2ccc3[nH]c4c(C(N)=O)cnc(N5CCCC6(CCNC6=O)C5)c4c3c2)CC1` (stereo not drawn) [Example 60, 8-(1-methylpiperidin-4-yl)-1-(1-oxo-2,7-diazaspiro[4.5]dec-7-yl)-5H-pyrido[4,3-b]indole-4-carboxamide], the IC50 came out at 0.0769 µM.

Turning to `NC(=O)c1cnc(N2CCC[C@@]3(C2)C(=O)NC[C@@H]3O)c2c1[nH]c1ccccc12` [Example 18, 1-[(4R,5S)-4-hydroxy-1-oxo-2,7-diazaspiro[4.5]dec-7-yl]-5H-pyrido[4,3-b]indole-4-carboxamide], the IC50 turned out to be 0.117 µM. As for `NC(=O)c1cnc(N2CCCC3(CCNC3=O)C2)c2c1[nH]c1cc(C3CCNCC3)ccc12` (stereo in doubt) [Example 63, 1-[(5S)-1-oxo-2,7-diazaspiro[4.5]dec-7-yl]-7-piperidin-4-yl-5H-pyrido[4,3-b]indole-4-carboxamide], the 50% inhibitory concentration (IC50) was determined as 0.0063 µM.
